{"source": "patent US20100056600A1", "about": "“11BETA-HSD1 ACTIVE COMPOUNDS” (priority 2007, published 2010)"}
{"target": "T1, h-11βHSD1 (Homo sapiens, UniProt P28845)", "T1 construct": "made in house", "T1 sequence (P28845 whole entry)": "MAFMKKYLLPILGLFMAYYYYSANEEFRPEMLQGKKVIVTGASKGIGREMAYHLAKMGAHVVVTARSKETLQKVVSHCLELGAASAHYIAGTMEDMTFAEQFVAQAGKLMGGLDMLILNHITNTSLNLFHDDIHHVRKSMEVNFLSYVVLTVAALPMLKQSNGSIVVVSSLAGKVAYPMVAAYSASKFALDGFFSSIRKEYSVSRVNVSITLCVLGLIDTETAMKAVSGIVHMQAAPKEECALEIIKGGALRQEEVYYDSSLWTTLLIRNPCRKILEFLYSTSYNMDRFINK", "test": "11βHSD1 enzyme assay (SPA, 3H-cortisone to 3H-cortisol)", "format": "biochemical", "details": "extract of yeast transformed with h-11βHSD1; 120 nM 3H-cortisone, 4 mM β-NADPH, 60 min at 30° C.", "experimental": "^3H-cortisone and anti-rabbit Ig coated scintillation proximity assay (SPA) beads were purchased from Amersham Pharmacia Biotech, β-NADPH was from Sigma and rabbit anti-cortisol antibodies were from Fitzgerald. An extract of yeast transformed with h-11βHSD1 (Hutt et al., FEBS Lett, 441, 25 (1998)) was used as the source of enzyme. The test compounds were dissolved in DMSO (10 mM). All dilutions were performed in a buffer containing 50 mM TRIS-HCl (Sigma Chemical Co), 4 mM EDTA (Sigma Chemical Co), 0.1% BSA (Sigma Chemical Co), 0.01% Tween-20 (Sigma Chemical Co) and 0.005% bacitracin (Novo Nordisk A/S), pH=7.4. Optiplate 96 wells plates were supplied by Packard. The amount of ^3H-cortisol bound to the SPA beads was measured on TopCount NXT, Packard.\nh-11βHSD1, 120 nM ^3H-cortisone, 4 mM β-NADPH, antibody (1:200), serial dilutions of test compound and SPA particles (2 mg/well) were added to the wells. The reaction was initiated by mixing the different components and was allowed to proceed under shaking for 60 min at 30° C. The reaction was stopped be the addition of 10 fold excess of a stopping buffer containing 500 μM carbenoxolone and 1 μM cortisone. Data was analysed using GraphPad Prism software.", "units": {"IC50": "nM"}}
{"compound": "O=C(c1ccc2c(c1)-c1ccccc1C2)N1C2CCC1CC(O)C2", "note": "(single isomer, unassigned) [Example 1, (9H-Fluoren-3-yl)-(cis 3-hydroxy-8-aza-bicyclo[3.2.1]oct-8-yl)-methanone]", "IC50": 8}
{"compound": "O=C(c1ccc2c(c1)-c1ccccc1C2)N1C2CCC1CC(O)C2", "note": "(single isomer, unassigned) [Example 2, (9H-Fluoren-3-yl)-(trans 3-hydroxy-8-aza-bicyclo[3.2.1]oct-8-yl)-methanone]", "IC50": 246}
{"compound": "Cn1c2ccccc2c2cc(C(=O)N3C4CCC3CC(O)C4)ccc21", "note": "(centres unmarked) [Example 3, (3-Hydroxy-8-aza-bicyclo[3.2.1]oct-8-yl)-(9-methyl-9H-carbazol-3-yl)-methanone]", "IC50": 6}
{"compound": "O=C(c1ccc2[nH]c3ccccc3c2c1)N1C2CCC1CC(O)C2", "note": "(centres unmarked) [Example 4, (9H-Carbazol-3-yl)-(3-hydroxy-8-aza-bicyclo[3.2.1]oct-8-yl)-methanone]", "IC50": 30}
{"compound": "Cn1c2ccccc2c2cc(C(=O)N3CC4CC3CC4O)ccc21", "note": "(centres unmarked) [Example 5, (5-Hydroxy-2-aza-bicyclo[2.2.1]hept-2-yl)-(9-methyl-9H-carbazol-3-yl)-methanone]", "IC50": 64}
{"compound": "Cn1c2ccccc2c2cc(C(=O)N3CC4CC(O)CC3C4)ccc21", "note": "(centres unmarked) [Example 7, (3-Hydroxy-6-aza-bicyclo[3.2.1]oct-6-yl)-(9-methyl-9H-carbazol-3-yl)-methanone]", "IC50": 360}
{"compound": "Cn1c2ccccc2c2cc(C(=O)N3CC4CC(O)C3C4)ccc21", "note": "(centres unmarked) [Example 9, (6-Hydroxy-2-aza-bicyclo[2.2.1]hept-2-yl)-(9-methyl-9H-carbazol-3-yl)-methanone]", "IC50": 274}
{"compound": "O=C(c1ccc2[nH]c3ccccc3c2c1)N1CC2CC(O)C1C2", "note": "(centres unmarked) [Example 10, (9H-Carbazol-3-yl)-(6-hydroxy-2-aza-bicyclo[2.2.1]hept-2-yl)-methanone]", "IC50": 1030}
{"compound": "O=C(NC1C2CC3CC1CC(O)(C3)C2)c1ccc2[nH]c3ccccc3c2c1", "note": "(centres unmarked) [Example 11, 9H-Carbazole-3-carboxylic acid (5-hydroxy-adamantan-2-yl)-amide]", "IC50": 29}
{"compound": "CN(C(=O)c1ccc2c(c1)c1ccccc1n2C)C1C2CC3CC1CC(O)(C3)C2", "note": "(centres unmarked) [Example 12, 9-Methyl-9H-carbazole-3-carboxylic acid (5-hydroxy-adamantan-2-yl)-methyl-amide]", "IC50": 41}
{"compound": "CN(C(=O)c1ccc2[nH]c3ccccc3c2c1)C1C2CC3CC1CC(O)(C3)C2", "note": "(centres unmarked) [Example 13, 9H-Carbazole-3-carboxylic acid (5-hydroxy-adamantan-2-yl)-methyl-amide]", "IC50": 76}
